Data as given in US12600716B2 (Gannex Pharma Co., Ltd., priority 2020, dated 2026).
Like-named read-outs stand apart in the source and are kept apart here.

Tests used:
human FXR protein = molecular target: T1, human FXR protein (Homo sapiens, UniProt Q96RI1); assay: FXR agonist binding ability: time-resolved fluorescence (LanthaScreen) FXR/coactivator assay; assay type: biochemical; details: GST-labeled human FXR, fluorescein-labeled coactivator, TR-FRET
T1 construct: purchased Invitrogen
Description: FXR Agonist Binding Ability Evaluation of the activation effect of the compound of the present invention with regard to the binding of FXR to its co-stimulatory factor SRC-1 was conducted by using time-resolved analytical techniques. Protein: glutathione-S-transferase (GST)-labeled human FXR protein (Invitrogen) • 2. Coactivator: Fluorescein-labeled steroid receptor coactivator (SRC2-2) (Invitrogen) • 3. Detection reagent: LanthaScreen Time-Resolved Fluorescence Analysis Kit (Invitrogen) • 1. The compound was prepared into a 10 mM DMSO stock solution and stored in a −20° C. refrigerator for a long time. • 2. The compound was diluted to 1 mM before the experiment, and then the compound was diluted 3-fold to 10 concentration points using DMSO. Then use buffer G (Invitrogen, PV4553) to dilute these 10 concentration points by 50 times to become a working fluid. Add 10 μl of each working solution to each well of a 384-well plate. • 3. Prepare a human FXR protein solution (final concentration 20 nM) in chilled buffer G and add 5 μl of human FXR protein solution to each well of a 384-well plate. • 4. Prepare a mix of buffer G containing 2 μM fluorescein-labeled steroid receptor coactivator and 20 nM GST antibody. • 5. Add 5 μl of the mixture prepared in Step 4 to a 384-well plate. • 6. Centrifuge the 384-well plate at 1000 g for 1 minute. • 7. Incubate for 1 hour at room temperature in the dark. • 8. Read the 384-well plate at 520 nm and 495 nm on an Envision 2104 plate reader. • 9. Calculate the EC50 value of the activation effect of the compound.

hFXR-LBD-GAL4 = molecular target: T2, hFXR-LBD-GAL4 (Homo sapiens, UniProt Q96RI1); assay: FXR agonist transactivation ability: luciferase reporter gene in HEK293T; assay type: cell-based; details: read-out: Cell activity
T2 construct: GAL4 (fusion partner); host or cells: HEK293T
T2 sequence (Q96RI1 262-486 limits assumed): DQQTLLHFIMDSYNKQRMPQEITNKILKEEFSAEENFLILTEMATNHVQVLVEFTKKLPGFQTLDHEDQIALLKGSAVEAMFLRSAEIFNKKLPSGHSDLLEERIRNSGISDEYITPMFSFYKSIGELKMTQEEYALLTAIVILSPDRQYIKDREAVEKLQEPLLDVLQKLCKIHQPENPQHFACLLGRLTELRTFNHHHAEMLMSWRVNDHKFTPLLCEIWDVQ
Description: FXR Agonist Transactivation Ability
Evaluation of the ability of the compound of the present invention to promote FXR transactivation was conducted by using luciferase reporter gene expression technology.
• 1. Cell line: HEK293T (Invitrogen) • 2. Expression plasmid: pBIND-hFXR-LBD-GAL4 (Promega), pGL4.35-luciferase (Promega) • 3. Cell culture medium: 10% serum and penicillin/streptomycin double antibody in DMEM medium • 4. Detection reagent: Steady-Glo fluorescence detection system (Promega). • 5. Transfection reagent: TransIT-293 Transfection Reagent (MIRUS BIO)
• 1. The compound was prepared into a 10 mM DMSO stock solution and stored in a −20° C. refrigerator for a long time. • 2. Resuscitation HEK293T cells were seeded in 10 cm culture dishes at a concentration of 5.5×10^6 and incubated for 16 hours at 37° C. in a 5% CO2 incubator. • 3. Return the transfection reagent to room temperature before transfection. The Trans-IT solution was added dropwise to Opti-MEM, and mixed by inversion for 5 minutes; the expression plasmid was added, mixed by inversion, and incubated at room temperature for 20 minutes. • 4. Add the transfection mixture from Step 3 to the prepared 10 cm dish in Step 2 and incubate for 5-6 hours in a 5% CO2 incubator. • 5. Dilute the compound 3 folds to 10 concentration points using DMSO; add 25 nl of compound per well in a 384-well plate using an Echo 550 sonic pipette; add HEK293T cells to the 384-well plate at a concentration of 15,000 cells/well; 37° C. incubate for 16-20 hours in a 5% CO2 incubator. • 6. Add 25 μl of Steady-Glo Fluorescent Reagent to each well and read the fluorescence on an Envision 2104 plate reader. • 7. Calculate the EC50 value of the activation of the compound.

[1] = Mouse pharmacokinetic studies (IV and PO); assay type: in vivo, Male CD-1 mice; details: for PO F: PO 10 mg/kg vs IV 2.0 mg/kg; for Vd / AUC(0-t) / clearance / half-life / Cmax / Tmax: male, CD-1, plasma; for clearance: read-out: IV Cl; for half-life: read-out: IV T½ (converted)
Description: Mouse Pharmacokinetic Studies
Typical PK study procedure. For i.v. PK studies, a group of three fasted Male CD-1 mice were dosed with the compound (2.0 mg/kg, 0.50 mg/mL in 5% solutol in saline, clear solution), and 0.02 mL blood was collected at 0.0830, 0.250, 0.500, 1.00, 2.00, 4.00, 8.00, 24.0 h. For PO PK studies, a group of three fasted Male CD-1 mice were dosed with the compound (10 mg/kg, 1 mg/mL in 5% solutol in saline, clear solution), and 0.02 mL blood was collected at 0.250, 0.500, 1.00, 2.00, 4.00, 6.00, 8.00, 24.0 h. The blood was collected into EP tubes (containing EDTA K20.85-1.15 mg) and centrifuged at 3,000 g or 3,200 g at 4° C. for 10 min) and plasma was isolated and divided into two vials. One was used for bioanalysis and one was kept as backup. The samples were kept at −60° C. or below, until being analyzed by LC MS/MS. The samples were analyzed with AB SCIEX INSTRUMENTS LC-MS/MS AU-Triple Quad 6500 Plus and data were processed with Phoenix WinNonlin 6.3 (IV-noncompartmental model and PO-noncompartmental model).

[2] = IV 2.0 mg/kg, read-out: IV AUC 0-t
[3] = PO 10 mg/kg, read-out: PO AUC 0-t

SMILES | EC50 (human FXR protein) [nM] | EC50 (hFXR-LBD-GAL4) [nM] | PO F [1] [%] | Vd ([1]; IV 2.0 mg/kg) [L/kg] | AUC(0-t) [1, 2] [ng·h/mL] | clearance ([1]; IV 2.0 mg/kg) [mL/min/kg] | half-life ([1]; IV 2.0 mg/kg) [min] | Cmax ([1]; PO 10 mg/kg) [ng/mL] | Tmax ([1]; PO 10 mg/kg) [min] | AUC(0-t) [1, 3] [ng·h/mL]
O=C(O)c1ccc(Oc2ccc3cc(OCc4c(-c5c(Cl)cccc5Cl)noc4C4CC4)ccc3c2Cl)nc1 [Compound 21, 6-((1-chloro-6-((5-cyclopropyl-3-(2,6-dichlorophenyl)isoxazol-4-yl)methoxy)naphthalen-2-yl)oxy)nicotinic acid] | 50 to 500 | < 200 | 46.2 | 1.75 | 969 | 35.8 | 76.8 | 1480 | 30 | 2220
Cc1nc(Oc2ccc3c(F)c(OCc4c(-c5c(Cl)cccc5Cl)noc4C4CC4)ccc3c2)ccc1C(=O)O [Compound 37, 6-((6-((5-cyclopropyl-3-(2,6-dichlorophenyl)isoxazol-4-yl)methoxy)-5-fluoronaphthalen-2-yl)oxy)-2-methylnicotinic acid] | 50 to 500 | > 1000 | – | – | – | – | – | – | – | –
O=C(O)c1ccc(Oc2c(Cl)cc(Cl)c3cc(OCc4c(-c5c(Cl)cccc5Cl)noc4C4CC4)ccc23)nc1 [Compound 41, 6-((2,4-dichloro-6-((5-cyclopropyl-3-(2,6-dichlorophenyl)isoxazol-4-yl)methoxy)naphthalen-1-yl)oxy)nicotinic acid] | > 500 | > 1000 | – | – | – | – | – | – | – | –
O=C(O)c1ccc(Oc2c(Cl)ccc3cc(OCc4c(-c5c(Cl)cccc5Cl)noc4C4CC4)ccc23)nc1 [Compound 42, 6-((2-chloro-6-((5-cyclopropyl-3-(2,6-dichlorophenyl)isoxazol-4-yl)methoxy)naphthalen-1-yl)oxy)nicotinic acid] | > 500 | > 1000 | – | – | – | – | – | – | – | –
Cc1nc(Oc2ccc3cc(OCc4c(-c5c(Cl)cccc5Cl)noc4C4CC4)ccc3c2Cl)ccc1C(=O)O [Compound 43, 6-((1-chloro-6-((5-cyclopropyl-3-(2,6-dichlorophenyl)isoxazol-4-yl)methoxy)naphthalen-2-yl)oxy)-2-methylnicotinic acid] | 50 to 500 | 500 to 1000 | – | – | – | – | – | – | – | –
Cc1nc(Oc2c(Cl)ccc3cc(OCc4c(-c5c(Cl)cccc5Cl)noc4C4CC4)ccc23)ccc1C(=O)O [Compound 46, 6((2-chloro-6 ((5-cyclopropyl-3-(2,6-dichlorophenyl)isoxazol-4-yl)methoxy)naphthalen-1-yl)oxy)-2-methylnicotinic acid] | 50 to 500 | < 200 | – | – | – | – | – | – | – | –
O=C(O)c1c(F)cccc1Oc1cccc2cc(OCc3c(-c4c(Cl)cccc4Cl)noc3C3CC3)ccc12 [Compound 49] | 50 to 500 | > 1000 | – | – | – | – | – | – | – | –

Results, then the compound that gave them:

EC50 (human FXR protein) [nM] | EC50 (hFXR-LBD-GAL4) [nM] | PO F [1] [%] | Vd ([1]; IV 2.0 mg/kg) [L/kg] | AUC(0-t) [1, 2] [ng·h/mL] | clearance ([1]; IV 2.0 mg/kg) [mL/min/kg] | half-life ([1]; IV 2.0 mg/kg) [min] | Cmax ([1]; PO 10 mg/kg) [ng/mL] | Tmax ([1]; PO 10 mg/kg) [min] | AUC(0-t) [1, 3] [ng·h/mL] | SMILES
50 to 500 | < 200 | 52.6 | 0.66 | 3550 | 9.26 | 96 | 5500 | 25 | 9360 | Cc1nc(Oc2ccc3cc(OCc4c(-c5c(Cl)cccc5Cl)noc4C4CC4)ccc3c2)ccc1C(=O)O [Compound 10, 6-((6-((5-cyclopropyl-3-(2,6-dichlorophenyl)isoxazol-4-yl)methoxy)naphthalen-2-yl)oxy)-2-methylnicotinic acid]
< 50 | 500 to 1000 | 33.3 | 0.294 | 4980 | 6.66 | 86.4 | 5730 | 30 | 8330 | O=C(O)c1cccc(Oc2ccc3cc(OCc4c(-c5c(Cl)cccc5Cl)noc4C4CC4)ccc3c2)n1 [Compound 11, 6-((6-((5-cyclopropyl-3-(2,6-dichlorophenyl)isoxazol-4-yl)methoxy)naphthalen-2-yl)oxy)picolinic acid]
< 50 | < 200 | 32 | 1.84 | 448 | 73.8 | 50.2 | 894 | 30 | 718 | O=C(O)c1ccc(Oc2cccc3cc(OCc4c(-c5c(Cl)cccc5Cl)noc4C4CC4)ccc23)nc1 [Compound 22, 6-((6-((5-cyclopropyl-3-(2,6-dichlorophenyl)isoxazol-4-yl)methoxy)naphthalen-1-yl)oxy)nicotinic acid]
< 50 | < 200 | 12 | 2.94 | 330 | 105 | 56.4 | 209 | 18 | 198 | O=C(O)c1ccnc(Oc2cccc3cc(OCc4c(-c5c(Cl)cccc5Cl)noc4C4CC4)ccc23)c1 [Compound 24, 2-((6-((5-cyclopropyl-3-(2,6-dichlorophenyl)isoxazol-4-yl)methoxy)naphthalen-1-yl)oxy)isonicotinic acid]
< 50 | < 200 | 17 | 0.745 | 969 | 35 | 37.2 | 900 | 30 | 830 | O=C(O)c1ccc(F)cc1Oc1cccc2cc(OCc3c(-c4c(Cl)cccc4Cl)noc3C3CC3)ccc12 [Compound 26, 2-((6-((5-cyclopropyl-3-(2,6-dichlorophenyl)isoxazol-4-yl)methoxy)naphthalen-1-yl)oxy)-4-fluorobenzoic acid]
< 50 | 500 to 1000 | – | – | – | – | – | – | – | – | O=C(O)c1ccc(Oc2ccc3ccc(OCc4c(-c5c(Cl)cccc5Cl)noc4C4CC4)c(F)c3c2)nc1 [Compound 38, 6-((7-((5-cyclopropyl-3-(2,6-dichlorophenyl)isoxazol-4-yl)methoxy)-8-fluoronaphthalen-2-yl)oxy)nicotinic acid]
< 50 | < 200 | – | – | – | – | – | – | – | – | Cc1nc(Oc2cccc3c(F)c(OCc4c(-c5c(Cl)cccc5Cl)noc4C4CC4)ccc23)ccc1C(=O)O [Compound 39, 6-((6-((5-cyclopropyl-3-(2,6-dichlorophenyl)isoxazol-4-yl)methoxy)-5-fluoronaphthalen-1-yl)oxy)-2-methylnicotinic acid]
< 50 | < 200 | – | – | – | – | – | – | – | – | O=C(O)c1cccnc1Oc1c(F)ccc2cc(OCc3c(-c4c(Cl)cccc4Cl)noc3C3CC3)ccc12 [Compound 48, 2-((6-((5-cyclopropyl-3-(2,6-dichlorophenyl)isoxazol-4-yl)methoxy)-2-fluoronaphthalen-1-yl)oxy)nicotinic acid]
